Earlier results in patent US20240216293A1, “USE OF PERILLYL ALCOHOL TO ENHANCE LEVO-DOPA DELIVERY” (NEONC TECHNOLOGIES, INC, priority 2021, published 2024).

System: patients with recurrent malignant gliomas
Conditions: Phase I/IIa trials, intranasal

In the case of `C=C(C)C1CC=C(CO)CC1` (stereo not shown) [NEO100, perillyl alcohol], the toxic side effects is listed as “without toxic side effects”.
